Assay [1] has as its target T1, Alpha-1A adrenergic receptor (Homo sapiens, UniProt P35348).
T1 sequence (P35348 whole entry): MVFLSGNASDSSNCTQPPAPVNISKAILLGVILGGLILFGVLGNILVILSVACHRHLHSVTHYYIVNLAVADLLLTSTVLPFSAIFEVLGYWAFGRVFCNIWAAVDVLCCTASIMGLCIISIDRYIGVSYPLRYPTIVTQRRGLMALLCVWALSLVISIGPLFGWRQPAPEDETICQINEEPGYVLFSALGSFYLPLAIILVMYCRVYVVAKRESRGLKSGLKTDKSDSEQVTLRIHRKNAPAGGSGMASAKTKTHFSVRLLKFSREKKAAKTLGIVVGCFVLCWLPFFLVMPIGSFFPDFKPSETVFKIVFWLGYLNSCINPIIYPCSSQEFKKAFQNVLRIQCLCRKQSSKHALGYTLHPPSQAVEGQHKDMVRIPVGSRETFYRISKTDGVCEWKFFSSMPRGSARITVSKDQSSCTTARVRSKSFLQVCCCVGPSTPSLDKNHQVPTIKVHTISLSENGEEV
The assay is described as follows: Binding affinity for human Alpha-1A adrenergic receptor from cultured LM(tk-) cells using [3H]-prazosin.

For assay [2], the target named is T2, Alpha-2B adrenergic receptor (Homo sapiens, UniProt P18089).
T2 sequence (P18089 whole entry): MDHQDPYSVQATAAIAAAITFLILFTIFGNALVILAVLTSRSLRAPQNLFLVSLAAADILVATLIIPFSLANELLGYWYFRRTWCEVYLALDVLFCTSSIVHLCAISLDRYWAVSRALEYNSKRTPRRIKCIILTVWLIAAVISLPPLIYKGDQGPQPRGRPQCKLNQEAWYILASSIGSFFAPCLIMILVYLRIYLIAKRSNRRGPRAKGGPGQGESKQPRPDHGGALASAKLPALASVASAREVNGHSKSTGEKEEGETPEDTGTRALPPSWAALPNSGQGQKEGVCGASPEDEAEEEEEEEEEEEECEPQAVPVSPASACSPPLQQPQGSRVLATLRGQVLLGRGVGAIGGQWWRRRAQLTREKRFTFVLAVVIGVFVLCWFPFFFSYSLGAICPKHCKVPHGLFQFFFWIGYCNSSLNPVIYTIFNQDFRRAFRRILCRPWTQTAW
Nature of the assay: Binding affinity for human Alpha-2B adrenergic receptor from cultured LM(tk-) cells using [3H]- prazosin.

In assay [3] the target is T3, Alpha-2A adrenergic receptor (Homo sapiens, UniProt P08913).
T3 sequence (P08913 whole entry): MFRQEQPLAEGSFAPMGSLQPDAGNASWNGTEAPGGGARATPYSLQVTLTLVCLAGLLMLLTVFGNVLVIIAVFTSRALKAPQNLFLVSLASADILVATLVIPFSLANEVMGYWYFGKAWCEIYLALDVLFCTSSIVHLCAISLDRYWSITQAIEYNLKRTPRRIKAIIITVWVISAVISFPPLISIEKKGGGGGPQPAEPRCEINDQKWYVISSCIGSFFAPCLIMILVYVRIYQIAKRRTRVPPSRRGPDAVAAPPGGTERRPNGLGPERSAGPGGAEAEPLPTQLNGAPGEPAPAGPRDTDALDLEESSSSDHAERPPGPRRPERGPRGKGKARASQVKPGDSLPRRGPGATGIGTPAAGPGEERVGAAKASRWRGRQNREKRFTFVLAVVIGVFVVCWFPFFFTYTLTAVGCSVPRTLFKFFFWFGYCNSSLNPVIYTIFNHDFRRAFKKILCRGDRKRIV
The assay is described as follows: Alpha-2A adrenergic receptor agonistic potency as inhibition of forskolin-stimulated synthesis of cyclic adenosine monophosphate. It is filed as functional.

The target of assay [4] is T2, Alpha-2B adrenergic receptor. The assay is described as follows: Alpha-2B adrenergic receptor agonistic potency as inhibition of forskolin-stimulated cyclic adenosine monophosphate synthesis. It is filed as functional.
Assay [5] deals with T4, Alpha-1D adrenergic receptor (Homo sapiens, UniProt P25100).
T4 sequence (P25100 whole entry): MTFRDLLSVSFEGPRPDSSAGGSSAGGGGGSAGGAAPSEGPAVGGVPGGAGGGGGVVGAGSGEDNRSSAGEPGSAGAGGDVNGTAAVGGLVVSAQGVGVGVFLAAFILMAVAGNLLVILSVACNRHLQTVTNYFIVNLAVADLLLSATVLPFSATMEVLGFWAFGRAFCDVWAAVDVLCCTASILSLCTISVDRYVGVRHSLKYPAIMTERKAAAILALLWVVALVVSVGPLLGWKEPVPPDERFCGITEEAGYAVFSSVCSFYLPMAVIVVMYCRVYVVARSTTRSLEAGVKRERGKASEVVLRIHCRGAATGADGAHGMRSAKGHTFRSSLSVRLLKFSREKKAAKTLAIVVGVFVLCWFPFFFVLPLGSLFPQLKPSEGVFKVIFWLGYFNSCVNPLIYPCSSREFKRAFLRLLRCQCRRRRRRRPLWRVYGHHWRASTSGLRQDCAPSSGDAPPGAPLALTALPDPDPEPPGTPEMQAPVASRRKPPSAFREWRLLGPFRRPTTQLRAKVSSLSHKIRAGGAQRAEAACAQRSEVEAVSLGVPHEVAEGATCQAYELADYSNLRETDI
The assay is described as follows: Binding affinity for human Alpha-1D adrenergic receptor from cultured LM(tk-) cells using [3H]- prazosin.

For assay [6], the target named is T3, Alpha-2A adrenergic receptor. The assay is described as follows: Binding affinity for human Alpha-2A adrenergic receptor from cultured LM(tk-) cells using [3H]rauwolscine.
Assay [7] addresses T5, Alpha-2C adrenergic receptor (Homo sapiens, UniProt P18825).
T5 sequence (P18825 whole entry): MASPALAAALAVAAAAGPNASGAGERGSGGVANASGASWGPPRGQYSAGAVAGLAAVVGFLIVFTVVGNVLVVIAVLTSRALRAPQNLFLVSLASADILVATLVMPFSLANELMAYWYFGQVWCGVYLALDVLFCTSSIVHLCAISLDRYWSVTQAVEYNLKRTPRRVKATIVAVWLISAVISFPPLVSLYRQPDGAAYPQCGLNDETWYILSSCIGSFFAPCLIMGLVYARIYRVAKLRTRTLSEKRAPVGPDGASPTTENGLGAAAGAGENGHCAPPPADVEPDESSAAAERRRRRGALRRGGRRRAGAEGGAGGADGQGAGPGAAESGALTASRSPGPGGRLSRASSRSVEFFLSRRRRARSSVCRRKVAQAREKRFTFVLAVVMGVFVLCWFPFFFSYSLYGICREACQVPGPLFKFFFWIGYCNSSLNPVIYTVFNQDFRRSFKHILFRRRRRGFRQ
Nature of the assay: Binding affinity for human Alpha-2C adrenergic receptor from cultured LM(tk-) cells using [3H]- prazosin.

Assay [8] concerns the target T6, Alpha-2C adrenergic receptor (Homo sapiens) (UniProt P18825).
T6 sequence (whole entry): T5 sequence (P18825 whole entry)
Nature of the assay: Inhibitory activity against Alpha-2C adrenergic receptor relative to norepinephrine.

Assay [9] has as its target T5, Alpha-2C adrenergic receptor. The assay is described as follows: Alpha-2C adrenergic receptor agonistic potency as inhibition of forskolin-stimulated cyclic adenosine monophosphate synthesis. It is filed as functional.
The target of assay [10] is T7, Alpha-2A adrenergic receptor (Homo sapiens) (UniProt P08913).
T7 sequence (whole entry): T3 sequence (P08913 whole entry)
The assay is described as follows: Inhibitory activity against Alpha-2A adrenergic receptor relative to norepinephrine.

In assay [11] the target is T8, Alpha-1B adrenergic receptor (Homo sapiens, UniProt P35368).
T8 sequence (P35368 whole entry): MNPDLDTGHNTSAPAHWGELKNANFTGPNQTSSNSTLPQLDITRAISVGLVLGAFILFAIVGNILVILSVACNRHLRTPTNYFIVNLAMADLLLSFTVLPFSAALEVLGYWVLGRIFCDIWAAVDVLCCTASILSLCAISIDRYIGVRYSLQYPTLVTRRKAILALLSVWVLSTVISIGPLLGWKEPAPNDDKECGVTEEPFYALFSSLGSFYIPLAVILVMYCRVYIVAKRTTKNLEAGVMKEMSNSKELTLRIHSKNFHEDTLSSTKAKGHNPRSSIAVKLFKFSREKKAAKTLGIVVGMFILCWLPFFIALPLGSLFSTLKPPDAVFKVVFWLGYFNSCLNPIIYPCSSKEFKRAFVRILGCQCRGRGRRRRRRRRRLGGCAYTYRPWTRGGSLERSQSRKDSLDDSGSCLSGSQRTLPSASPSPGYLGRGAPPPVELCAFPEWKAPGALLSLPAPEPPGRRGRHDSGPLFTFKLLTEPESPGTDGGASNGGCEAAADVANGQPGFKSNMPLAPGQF
Nature of the assay: Binding affinity for human Alpha-1B adrenergic receptor from cultured LM(tk-) cells using [3H]prazosin.

For assay [12], the target named is T9, Alpha-2B adrenergic receptor (Homo sapiens) (UniProt P18089).
T9 sequence (whole entry): T2 sequence (P18089 whole entry)
Particulars: 100 uM.

Assay [13] has as its target T9, Alpha-2B adrenergic receptor (Homo sapiens). The assay is described as follows: Inhibitory activity against alpha-2B adrenoceptor relative to norepinephrine at 100 uM; Not active.
Assay [14] has as its target T2, Alpha-2B adrenergic receptor. Nature of the assay: Binding affinity for human alpha-2B adrenoceptor from cultured Y-1 cells using [3H]rauwolscine. It is filed as cell-based.

Data on 2 compounds can be found in ChEMBL document CHEMBL1128892, “Pharmacological evaluation of UK-14,304 analogs at cloned human adrenergic receptors” (Bioorg Med Chem Lett, 1995).

The source made the active and inactive calls. The calls are words filed in the database; no cut-off is given here.

The term Ki denotes a measure of affinity in units of concentration, obtained from inhibition or displacement. Read a high Ki as a looser hold on the target. Broadly, the EC50 is the midpoint of the concentration-response curve. Read a high EC50 as weaker potency.

On to `Cc1c(NC2=NCCN2)ccc2nccnc12`, for which the Ki in assay [1] is 1480 nM; in assay [2], 8.91 nM; in assay [5], 562 nM; in assay [6], 7.24 nM; in assay [7], 28.2 nM; in assay [11], 3310 nM. The EC50 is 1.2 nM in [3], 77.6 nM in assay [4] and 14.1 nM in assay [9]. The Intrinsic activity in assay [8] and in assay [10] was 1 throughout.

On to `Ic1c(NC2=NCCN2)ccc2nccnc12`, for which the Ki is 977 nM in [1]; 282 nM in [5]; 6.76 nM in [6]; 407 nM in assay [7]; 42.7 nM in [14]; 1910 nM in assay [11]. Also, the EC50 in [3] was 11.5 nM; in assay [9] it was 55 nM. Further, in assay [12], the “Log EC50” value was “inactive”. Also, in assay [13], the Intrinsic activity result is “inactive”. Besides, the Intrinsic activity in [8] and in [10] was 1 throughout.
